Data: patent US4591589A, “2-aryl pyrazolo[4,3-c]cinnolin-3-ones” (Roussel Uclaf, priority 1985, dated 1986)
Where a name gives a salt, the structure may show the parent alone.

How the values were obtained:
mice [1] = assay: Acute toxicity (lethal dose LD0); format: in vivo; settings: oral
Procedure: The lethal dose LD0 of the compound of Example 1 was evaluated after administration orally in mice. The maximum dose not causing any mortality in 8 days was called the LD0.

rats [2] = assay: Plate test in rats (electric shocks); format: in vivo; settings: oral, 20 mg/kg, half an hour after administration, vs control
Procedure: (§1) The apparatus (Apelab) and the method used are described by BOISSER et al [European J. Pharmacol., 1968, Vol. 4, p. 145]. The plates were linked to a stimulator (U. Sachs, Roucaire) which enabled electric shocks of 120 volts to be delivered during 0.5 seconds. The tests were carried out on groups of 10 mice or rats half an hour after oral administration of the compound studied and each animal has put individually on the apparatus. After 15 seconds of free exploration, it was submitted to an electric shock each time it passed from one plate to another, a minimum of 3 seconds being observed between two shocks. The number of shocks delivered was counted over 1 minute and the results obtained were compared to those observed in the control animals in a test by Dunnett.

rats [3] = assay: Staircase test; format: in vivo; settings: 20 mg/kg; 1 hour after administration; counted for 3 minutes
Procedure: The apparatus and the method used are described by THIEBOT et al [Psychol-pharmacologia (Berlin), 1973, Vol. 31, p. 77]. The experiment was carried out on groups of 15 inexperienced rats and the animals were put individually in the enclosure 1 hour after administration of the compound studied. The number of straightenings up and the number of steps claimed were counted for 3 minutes.

mice [4] = assay: Plate test in mice (electric shocks); format: in vivo; settings: for anxiety reducing activity (plate test): conclusion in words, mice (Example 1 also rats)
Procedure: as §1

benzodiazepine receptors = assay: Affinity for benzodiazepine receptors (displacement of 3H diazepam, rat brain cortex homogenate); format: binding; settings: rat brain cortices; 3H diazepam 10^-9 M, 30 minutes at 0° C., pH 7.4; read-out: Cl 50 (concentration inhibiting by 50% the specific bonding of 3H diazepam)
Procedure: The cortices removed from the brains of male rats weighing an average of 150 g were homogenized to one twentieth part (weight/volume) in 0.32M sucrose. After centrifuging the homogenate at 1000 g for 10 minutes at 0° C., the supernatant layer was centrifuged at 30,000 g for 20 minutes at +4° C. The residue was suspended in 20 volumes of Tris HCl 50 mM buffer with a pH of 7.4 and centrifuged at 30,000 g for 20 minutes at +4° C. The new residue obtained was suspended in 50 ml of Krebs Tris HCl buffer, pH 7.4.
2 ml of this suspension in the presence of ^3 H diazepam at a concentration of 10^-9 M was incubated for 30 minutes at 0° C., alone, and with increasing concentrations of the product under test, or to determine the non-specific fixation, with non-radio-active diazepam at a concentration of 10^-6 M. The incubated suspensions were filtered on Whatman GF/C and the filters were washed twice with 5 ml of Krebs Tris HCl buffer, pH 7.4, at 0° C. The radioactivity of the filters was measured by liquid scintillation. The activity of the product was expressed by CI 50: concentration inhibiting by 50% the specific bonding of ^3 H diazepam, determined graphically.

Structure (SMILES)	LD0 (maximum dose not causing any mortality in 8 days) (mice [1])	IC50 (benzodiazepine receptors)	other results
O=c1c2n[nH]c3ccc(Cl)cc3c-2nn1-c1ccccc1 [Example 1, 8-chloro-2,5-dihydro-2-phenyl-3H-pyrazolo[4,3-c]cinnolin-3-one]	> 400		increase in number of shocks delivered (rats [2]): 41%; decrease in number of straightenings up (rats [3]): 46%; increase in number of shocks delivered (mice [4]; mice, oral, 20 mg/kg, half an hour after administration, vs control): 63%
O=c1c2n[nH]c3ccccc3c-2nn1-c1ccc(Cl)cc1 [Example 2, 2-(4-chlorophenyl)-2,5-dihydro-3H-pyrazolo[4,3-c]cinnolin-3-one]		3.7 nM	
O=c1c2n[nH]c3ccccc3c-2nn1-c1ccccc1 [Example 3, 2,5-dihydro-2-phenyl-3H-pyrazolo[4,3-c]cinnolin-3-one]	> 200	0.9 nM	anxiety reducing activity (plate test) (mice [4]): good anxiety reducing activity; increase in number of shocks (mice [4]; mice, oral, 50 mg/kg, half an hour after administration, vs control): 50%
COc1ccc(-n2nc3c4ccccc4[nH]nc-3c2=O)cc1 [Example 4, 2,5-dihydro-2-(4-methoxyphenyl)-3H-pyrazolo[4,3-c]cinnolin-3-one]	> 400	2.5 nM	
O=c1c2n[nH]c3ccccc3c-2nn1-c1ccc(OCc2ccccc2)cc1 [Example 5, 2,5-dihydro-2-(4-benzyloxyphenyl)-3H-pyrazolo[4,3-c]cinnolin-3-one]	> 400	18 nM	
O=c1c2n[nH]c3ccccc3c-2nn1-c1cccc(C(F)(F)F)c1 [Example 6, 2,5-dihydro-2-(3-trifluoromethylphenyl)-3H-pyrazolo[4,3-c]cinnolin-3-one]	> 400		
Cc1ccccc1-n1nc2c3ccccc3[nH]nc-2c1=O [Example 7, 2,5-dihydro-2-(2-methylphenyl)-3H-pyrazolo[4,3-c]cinnolin-3-one]	200		
Cl.O=c1c2n[nH]c3ccccc3c-2nn1-c1ccccn1 [Example 8, 2,5-dihydro-(2-pyridin-2-yl)-3H-pyrazolo[4,3-c]cinnolin-3-one hydrochloride]	> 400	3.1 nM	anxiety reducing activity (plate test) (mice [4]): good anxiety reducing activity; increase in number of shocks (mice [4]; mice, oral, 100 mg/kg, half an hour after administration, vs control): 50%
O=c1c2n[nH]c3ccccc3c-2nn1-c1nccs1 [Example 9, 2,5-dihydro-(2-thiazol-2-yl)-3H-pyrazolo[4,3-c]cinnolin-3-one hydrochloride]		3.1 nM	
O=c1c2n[nH]c3ccccc3c-2nn1C1=NCCS1 [Example 10, 2,5-dihydro-(2-dihydrothiazol-2-yl)-3H-pyrazolo[4,3-c]cinnolin-3-one hydrochloride]	> 400		
